Assay results: patent publication US20200345746A1, “Oxazine Derivative for Use in the Prevention of Alzheimer's Disease in at Risk Patents” (Novartis AG, priority 2016, published 2020)

Test system: Aβ40
Assay: First-in-human study: Aβ40 in CSF
Format: in vivo
Conditions: for Aβ40 % change from baseline, Mean (SD) / Aβ40 % change from baseline, Median: CSF, 2 weeks; for lowering of CSF Aβ40 concentrations, up to: healthy elderly subjects
Protocol: The purpose of this study was to determine the single and multiple maximum tolerated dose of Compound 1 and to assess the pharmacokinetic/pharmacodynamic (PK/PD) relationship using Aβ in CSF as primary PD biomarker.
Pharmacodynamic assessments using Aβ concentrations in CSF as primary biomarker of drug action were also been applied in healthy elderly subjects. Dose-dependent lowering of Aβ40 concentrations was determined up to approximately 80% and 90% after single and multiple dosing, respectively (Tables 14 and 15, FIG. 9).
In the completed first-in-human and 3-month dose-ranging safety and tolerability clinical studies described in Examples 5 and 6, Aβ concentrations in CSF were obtained by means of lumbar punctures before the first dose (baseline) and respectively after 2 weeks and 3 months of multiple dosing. ApoE4 genotype also was obtained in the subjects who consented. The percent change from baseline in Aβ40 and Aβ42 concentrations was calculated in subjects who took the study treatment and had no major protocol deviation with potential impact on the evaluation of the pharmacodynamic effect. Tables 18 to 21 below provide summary statistics of the percent change from baseline by treatment group and ApoE genotype (E4 heterozygotes versus E4 non-carriers). Only one subject with CSF data was E4 homozygote (from the 3-month dose-ranging safety and tolerability study).

[1] = multiple-dose 10 mg, Day 15 (24 h post last dose)
[2] = multiple-dose 30 mg, Day 15 (24 h post last dose)
[3] = multiple-dose 90 mg, Day 15 (24 h post last dose)
[4] = multiple-dose 300 mg, Day 15 (24 h post last dose)

C[C@@]1(c2nc(NC(=O)c3ncc(C(F)(F)F)cc3Cl)ccc2F)CO[C@@](C)(C(F)(F)F)C(N)=N1 [Compound 1, N-(6-((3R,6R)-5-amino-3,6-dimethyl-6-(trifluoromethyl)-3,6-dihydro-2H-1,4-oxazin-3-yl)-5-fluoropyridin-2-yl)-3-chloro-5-(trifluoromethyl)picolinamide]
Aβ40 % change from baseline, Mean (SD) (10 mg, E4 heterozygotes): −56 (10) %
Aβ40 % change from baseline, Median (10 mg, E4 heterozygotes): −53%
Aβ40 % change from baseline, Mean (SD) (10 mg, E4 non-carriers): −59 (7) %
Aβ40 % change from baseline, Median (10 mg, E4 non-carriers): −61%
Aβ40 % change from baseline, Mean (SD) (30 mg, E4 non-carriers): −80 (4) %
Aβ40 % change from baseline, Median (30 mg, E4 non-carriers): −81%
Aβ40 % change from baseline, Mean (SD) (90 mg, E4 heterozygotes): −90 (2) %
Aβ40 % change from baseline, Median (90 mg, E4 heterozygotes): −90%
Aβ40 % change from baseline, Mean (SD) (90 mg, E4 non-carriers): −89 (2) %
Aβ40 % change from baseline, Median (90 mg, E4 non-carriers): −90%
Aβ40 % change from baseline, Mean (SD) (300 mg, E4 heterozygotes (n 1)): −93%
Aβ40 % change from baseline, Median (300 mg, E4 heterozygotes (n 1)): −93%
Aβ40 % change from baseline, Mean (SD) (300 mg, E4 non-carriers): −94 (1) %
Aβ40 % change from baseline, Median (300 mg, E4 non-carriers): −94%
lowering of CSF Aβ40 concentrations, up to (multiple dosing): ~90%
lowering of CSF Aβ40 concentrations, up to (single dosing): approximately 80%
Aβ40 in CSF percent change from baseline, Mean (SD) [1]: −60.1 (9.91) %
Aβ40 in CSF percent change from baseline, Median [1]: −61.5%
Aβ40 in CSF percent change from baseline, Mean (SD) [2]: −80.0 (3.89) %
Aβ40 in CSF percent change from baseline, Median [2]: −80.2%
Aβ40 in CSF percent change from baseline, Mean (SD) [3]: −88.2 (3.07) %
Aβ40 in CSF percent change from baseline, Median [3]: −89.1%
Aβ40 in CSF percent change from baseline, Mean (SD) [4]: −93.6 (0.61) %
Aβ40 in CSF percent change from baseline, Median [4]: −93.5%
Aβ40 in CSF percent change from baseline, Mean (SD) (single-dose 10 mg, 12 h): −11.6 (8.31) %
Aβ40 in CSF percent change from baseline, Median (single-dose 10 mg, 12 h): −12.5%
Aβ40 in CSF percent change from baseline, Min-Max (single-dose 10 mg, 12 h): −21-1%
Aβ40 in CSF percent change from baseline, Mean (SD) (single-dose 10 mg, 24 h): −15.0 (10.21) %
Aβ40 in CSF percent change from baseline, Median (single-dose 10 mg, 24 h): −14.3%
Aβ40 in CSF percent change from baseline, Min-Max (single-dose 10 mg, 24 h): −31-−4%
Aβ40 in CSF percent change from baseline, Mean (SD) (single-dose 10 mg, 34 h): −9.7 (14.72) %
Aβ40 in CSF percent change from baseline, Median (single-dose 10 mg, 34 h): −12.5%
Aβ40 in CSF percent change from baseline, Min-Max (single-dose 10 mg, 34 h): −25-10%
Aβ40 in CSF percent change from baseline, Mean (SD) (single-dose 90 mg, 12 h): −14.2 (35.83) %
Aβ40 in CSF percent change from baseline, Median (single-dose 90 mg, 12 h): −28.0%
Aβ40 in CSF percent change from baseline, Min-Max (single-dose 90 mg, 12 h): −36-58%
Aβ40 in CSF percent change from baseline, Mean (SD) (single-dose 90 mg, 24 h): −44.8 (12.48) %
Aβ40 in CSF percent change from baseline, Median (single-dose 90 mg, 24 h): −49.2%
Aβ40 in CSF percent change from baseline, Min-Max (single-dose 90 mg, 24 h): −55-−25%
Aβ40 in CSF percent change from baseline, Mean (SD) (single-dose 90 mg, 34 h): −50.0 (8.87) %
Aβ40 in CSF percent change from baseline, Median (single-dose 90 mg, 34 h): −45.4%
Aβ40 in CSF percent change from baseline, Min-Max (single-dose 90 mg, 34 h): −60-−41%
Aβ40 in CSF percent change from baseline, Mean (SD) (single-dose 300 mg, 12 h): −35.8 (16.40) %
Aβ40 in CSF percent change from baseline, Median (single-dose 300 mg, 12 h): −44.1%
Aβ40 in CSF percent change from baseline, Min-Max (single-dose 300 mg, 12 h): −54-−13%
Aβ40 in CSF percent change from baseline, Mean (SD) (single-dose 300 mg, 24 h): −68.3 (10.65) %
Aβ40 in CSF percent change from baseline, Median (single-dose 300 mg, 24 h): −72.5%
Aβ40 in CSF percent change from baseline, Min-Max (single-dose 300 mg, 24 h): −79-−52%
Aβ40 in CSF percent change from baseline, Mean (SD) (single-dose 300 mg, 34 h): −78.3 (4.75) %
Aβ40 in CSF percent change from baseline, Median (single-dose 300 mg, 34 h): −79.3%
Aβ40 in CSF percent change from baseline, Min-Max (single-dose 300 mg, 34 h): −84-−69%
Aβ40 in CSF percent change from baseline, Mean (SD) (single-dose 750 mg, 12 h): −36.2 (13.58) %
Aβ40 in CSF percent change from baseline, Median (single-dose 750 mg, 12 h): −38.6%
Aβ40 in CSF percent change from baseline, Min-Max (single-dose 750 mg, 12 h): −53-−10%
Aβ40 in CSF percent change from baseline, Mean (SD) (single-dose 750 mg, 24 h): −67.4 (15.54) %
Aβ40 in CSF percent change from baseline, Median (single-dose 750 mg, 24 h): −70.6%
Aβ40 in CSF percent change from baseline, Min-Max (single-dose 750 mg, 24 h): −82-−36%
Aβ40 in CSF percent change from baseline, Mean (SD) (single-dose 750 mg, 34 h): −79.1 (8.88) %
Aβ40 in CSF percent change from baseline, Median (single-dose 750 mg, 34 h): −82.3%
Aβ40 in CSF percent change from baseline, Min-Max (single-dose 750 mg, 34 h): −87-−60%
